Data: patent US20230085307A1, “PYRIDAZINONE COMPOUND AND HERBICIDE” (NISSAN CHEMICAL CORPORATION, priority 2019, published 2023)

Legend:
persian speedwell [1] = assay: Test Example 4: herbicidal effect by soil treatment (Table 19, symbol R); format: in vivo, Persian speedwell (Veronica persica); details: for R: persian speedwell, herbicidal effect rating: AAH 320 g/ha
In short: (§1)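 Applied as a water-diluted emulsion, the compound was sprayed onto soil covering newly sown seeds. Evaluation came three weeks after application, in a greenhouse held at 25° C. to 30° C.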

persian speedwell [2] = assay: Test Example 5: herbicidal effect by foliage application, plastic box (Table 20, symbol R); format: in vivo, Persian speedwell (Veronica persica); details: foliage application; for R: persian speedwell, herbicidal effect: three weeks after application
In short: (§2)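 Sow seeds spot-wise in sterilized diluvial soil; cover with ~1.5 cm soil. Grow 14 days in greenhouse, 25° C. to 30° C. Spray foliage with emulsion diluted to predetermined amount. Rate effect after 3 weeks.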

late watergrass = assay: Test Example 1: herbicidal activity, application before weed generation under submerged conditions (Table 16, symbol A); format: in vivo, late watergrass (Echinochloa oryzicola); details: 320 g/ha applied herbicide
In short: (§3)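 Alluvial soil was flooded to 4 cm depth, weed seeds were sown mixed and 2.5-leaf rice seedlings were transplanted. On sowing day, the compound's emulsion, diluted in water to a set dose, was applied to the water surface. Plants grew at 25–30 °C and were scored 0–5 after three weeks.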

southern crabgrass = assay: Test Example 5: herbicidal effect by foliage application, plastic box (Table 20, symbol F); format: in vivo, southern crabgrass (Digitaria ciliaris); details: foliage application; for F: southern crabgrass, herbicidal effect: three weeks after application
In short: as §2

Italian ryegrass = assay: Test Example 4: herbicidal effect by soil treatment (Table 19, symbol K); format: in vivo, Italian ryegrass (Lolium multiflorum); details: for K: Italian ryegrass, herbicidal effect rating: AAH 320 g/ha
In short: as §1

oval-leafed pondweed [3] = assay: Test Example 1: herbicidal activity, application before weed generation under submerged conditions (Table 16, symbol C); format: in vivo, oval-leafed pondweed (Monochoria vaginalis); details: 320 g/ha applied herbicide
In short: as §3

barnyard grass = assay: Test Example 5: herbicidal effect by foliage application, plastic box (Table 20, symbol H); format: in vivo, barnyard grass (Echinochloa crus-galli); details: foliage application; for H: barnyard grass, herbicidal effect: three weeks after application
In short: as §2

rice flat sedge = assay: Test Example 3: herbicidal effect by foliage application, Wagner pot (Table 18, symbol E); format: in vivo, rice flat sedge (Cyperus iria); details: for herbicidal effect on E (rice flat sedge), rating 0-5: 320 g/ha
In short: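 Plants were sown in alluvial soil held under 0.1–0.5 cm standing water and grown 14 days in a greenhouse at 25–30 °C. An emulsifiable formulation, water-diluted to the set dose, was then sprayed onto the foliage, and effects were scored three weeks later using previously defined criteria.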

velvetleaf = assay: Test Example 5: herbicidal effect by foliage application, plastic box (Table 20, symbol M); format: in vivo, velvetleaf (Abutilon theophrasti); details: foliage application; for M: velvetleaf, herbicidal effect: three weeks after application
In short: as §2

green foxtail = assay: Test Example 5: herbicidal effect by foliage application, plastic box (Table 20, symbol G); format: in vivo, green foxtail (Setaria viridis); details: foliage application; for G: green foxtail, herbicidal effect: three weeks after application
In short: as §2

chickweed = assay: Test Example 5: herbicidal effect by foliage application, plastic box (Table 20, symbol P); format: in vivo, common chickweed (Stellaria media); details: foliage application; for P: chickweed, herbicidal effect: three weeks after application
In short: as §2

oval-leafed pondweed [4] = assay: Test Example 2: herbicidal activity, application during weed generation under submerged conditions (Table 17, symbol C); format: in vivo, oval-leafed pondweed (Monochoria vaginalis); details: AAH 320 g/ha; application during weed generation, submerged conditions
In short: (§4)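 Steps: fill Wagner pots with alluvial soil; add water to give 4 cm depth; sow the species mixed; grow under glass at 25–30° C.; at 1–2 leaves apply water-diluted emulsion formulation to the water surface at a fixed herbicide amount; score after 3 weeks.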

wild oat = assay: Test Example 4: herbicidal effect by soil treatment (Table 19, symbol I); format: in vivo, wild oat (Avena fatua); details: for I: wild oat, herbicidal effect rating: AAH 320 g/ha
In short: as §1

redroot pigweed = assay: Test Example 5: herbicidal effect by foliage application, plastic box (Table 20, symbol N); format: in vivo, redroot pigweed (Amaranthus retroflexus); details: foliage application; for N: redroot pigweed, herbicidal effect: three weeks after application
In short: as §2

Japanese bulrush = assay: Test Example 2: herbicidal activity, application during weed generation under submerged conditions (Table 17, symbol B); format: in vivo, Japanese bulrush (Schoenoplectus juncoides); details: AAH 320 g/ha; application during weed generation, submerged conditions
In short: as §4

[5] = amount of applied herbicide 320 g/ha
[6] = 320 g/ha, 3 weeks after application
[7] = 320 g/ha, evaluated three weeks after application
[8] = AAH 320 g/ha, evaluated three weeks after application

Compound | R: persian speedwell, herbicidal effect (persian speedwell [2]; AAH 320 g/ha) | Herbicidal effect on A: late watergrass (grade 0-5) (late watergrass) | F: southern crabgrass, herbicidal effect (southern crabgrass; AAH 320 g/ha) | Herbicidal effect on C: oval-leafed pondweed (grade 0-5) (oval-leafed pondweed [3]) | H: barnyard grass, herbicidal effect (barnyard grass; AAH 320 g/ha) | herbicidal effect on E (rice flat sedge), rating 0-5 (rice flat sedge) | M: velvetleaf, herbicidal effect (velvetleaf; AAH 320 g/ha) | G: green foxtail, herbicidal effect (green foxtail; AAH 320 g/ha) | P: chickweed, herbicidal effect (chickweed; AAH 320 g/ha) | herbicidal effect rating, C: oval-leafed pondweed (oval-leafed pondweed [4]) | N: redroot pigweed, herbicidal effect (redroot pigweed; AAH 320 g/ha) | herbicidal effect rating, B: Japanese bulrush (Japanese bulrush) | R: persian speedwell, herbicidal effect rating (persian speedwell [1]) | K: Italian ryegrass, herbicidal effect rating (Italian ryegrass) | I: wild oat, herbicidal effect rating (wild oat) | also measured
C=CCOc1ccccc1-c1sc2ccccc2c1-c1c(O)c(C)nn(C)c1=O [1-110] | 5 (Herbicidal rate of 90% or more (almost completely withered)) | 3 (Herbicidal rate of 40% or more and less than 70%) | 4 (Herbicidal rate of 70% or more and less than 90%) | 4 (Herbicidal rate of 70% or more and less than 90%) | 3 (Herbicidal rate of 40% or more and less than 70%) | 4 (Herbicidal rate of 70% or more and less than 90%) | 2 (Herbicidal rate of 20% or more and less than 40%) | 4 (Herbicidal rate of 70% or more and less than 90%) | 5 (Herbicidal rate of 90% or more (almost completely withered)) | 0 (Herbicidal rate of 5% or less (almost no effect)) | 0 (Herbicidal rate of 5% or less (almost no effect)) | 2 (Herbicidal rate of 20% or more and less than 40%) | – | – | – | herbicidal effect rating, R: persian speedwell (persian speedwell [1]; [5]): 3 (Herbicidal rate of 40% or more and less than 70%); herbicidal effect rating, K: Italian ryegrass (Italian ryegrass; [5]): 2 (Herbicidal rate of 20% or more and less than 40%); herbicidal effect rating, I: wild oat (wild oat; [5]): 1 (Herbicidal rate of 5% or more and less than 20%)
Cc1nn(C)c(=O)c(-c2c(-c3ccc(OCC(F)(F)F)cc3)sc3ccccc23)c1O [1-140] | 5 (Herbicidal rate of 90% or more (almost completely withered)) | 3 (Herbicidal rate of 40% or more and less than 70%) | 4 (Herbicidal rate of 70% or more and less than 90%) | 0 (Herbicidal rate of 5% or less (almost no effect)) | 5 (Herbicidal rate of 90% or more (almost completely withered)) | 5 (Herbicidal rate of 90% or more (almost completely withered)) | 4 (Herbicidal rate of 70% or more and less than 90%) | 5 (Herbicidal rate of 90% or more (almost completely withered)) | 5 (Herbicidal rate of 90% or more (almost completely withered)) | 0 (Herbicidal rate of 5% or less (almost no effect)) | 4 (Herbicidal rate of 70% or more and less than 90%) | 3 (Herbicidal rate of 40% or more and less than 70%) | 5 (Herbicidal rate of 90% or more (almost completely withered)) | 5 (Herbicidal rate of 90% or more (almost completely withered)) | 0 (Herbicidal rate of 5% or less (almost no effect)) | –
Cc1nn(C)c(=O)c(-c2c(-c3ccc(OC(F)F)cc3)sc3ccccc23)c1O [1-201] | – | 3 (Herbicidal rate of 40% or more and less than 70%) | – | 1 (Herbicidal rate of 5% or more and less than 20%) | – | 5 (Herbicidal rate of 90% or more (almost completely withered)) | – | – | – | 3 (Herbicidal rate of 40% or more and less than 70%) | – | 3 (Herbicidal rate of 40% or more and less than 70%) | 5 (Herbicidal rate of 90% or more (almost completely withered)) | 4 (Herbicidal rate of 70% or more and less than 90%) | 0 (Herbicidal rate of 5% or less (almost no effect)) | effect on persian speedwell (R) (persian speedwell [2]; [6]): 5 (Herbicidal rate of 90% or more (almost completely withered)); effect on southern crabgrass (F) (southern crabgrass; [6]): 0 (Herbicidal rate of 5% or less (almost no effect)); effect on barnyard grass (H) (barnyard grass; [6]): 5 (Herbicidal rate of 90% or more (almost completely withered)); effect on velvetleaf (M) (velvetleaf; [6]): 5 (Herbicidal rate of 90% or more (almost completely withered)); effect on green foxtail (G) (green foxtail; [6]): 5 (Herbicidal rate of 90% or more (almost completely withered))
CCCC(=O)Oc1c(C)nn(C)c(=O)c1-c1c(-c2ccc(C(C)=O)cc2)sc2ccc(F)cc12 [2-078] | – | 5 (Herbicidal rate of 90% or more (almost completely withered)) | – | 4 (Herbicidal rate of 70% or more and less than 90%) | – | 5 (Herbicidal rate of 90% or more (almost completely withered)) | – | – | – | 4 (Herbicidal rate of 70% or more and less than 90%) | – | 4 (Herbicidal rate of 70% or more and less than 90%) | – | – | – | herbicidal effect rating, R: persian speedwell (persian speedwell [1]; 320 g/ha): 5 (Herbicidal rate of 90% or more (almost completely withered)); herbicidal effect on R: persian speedwell (persian speedwell [2]; [7]): 5 (Herbicidal rate of 90% or more (almost completely withered)); herbicidal effect on F: southern crabgrass (southern crabgrass; [7]): 0 (Herbicidal rate of 5% or less (almost no effect)); herbicidal effect rating, K: Italian ryegrass (Italian ryegrass; 320 g/ha): 4 (Herbicidal rate of 70% or more and less than 90%); herbicidal effect on H: barnyard grass (barnyard grass; [7]): 2 (Herbicidal rate of 20% or more and less than 40%); herbicidal effect on M: velvetleaf (velvetleaf; [7]): 5 (Herbicidal rate of 90% or more (almost completely withered)); herbicidal effect on G: green foxtail (green foxtail; [7]): 3 (Herbicidal rate of 40% or more and less than 70%); herbicidal effect on P: chickweed (chickweed; [7]): 5 (Herbicidal rate of 90% or more (almost completely withered)); herbicidal effect rating, I: wild oat (wild oat; 320 g/ha): 0 (Herbicidal rate of 5% or less (almost no effect)); herbicidal effect on N: redroot pigweed (redroot pigweed; [7]): 5 (Herbicidal rate of 90% or more (almost completely withered))
Cc1nn(C)c(=O)c(-c2c(-c3ccc(OC(F)F)cc3)sc3ccc(F)cc23)c1OC(=O)c1cccs1 [2-288] | – | 5 (Herbicidal rate of 90% or more (almost completely withered)) | – | 4 (Herbicidal rate of 70% or more and less than 90%) | – | – | – | – | – | 3 (Herbicidal rate of 40% or more and less than 70%) | – | 3 (Herbicidal rate of 40% or more and less than 70%) | – | – | – | herbicidal effect on R: persian speedwell (persian speedwell [1]; [5]): 5 (Herbicidal rate of 90% or more (almost completely withered)); R: persian speedwell, herbicidal effect (criteria 0-5) (persian speedwell [2]; [8]): 5 (Herbicidal rate of 90% or more (almost completely withered)); F: southern crabgrass, herbicidal effect (criteria 0-5) (southern crabgrass; [8]): 2 (Herbicidal rate of 20% or more and less than 40%); herbicidal effect on K: Italian ryegrass (Italian ryegrass; [5]): 4 (Herbicidal rate of 70% or more and less than 90%); H: barnyard grass, herbicidal effect (criteria 0-5) (barnyard grass; [8]): 5 (Herbicidal rate of 90% or more (almost completely withered)); herbicidal effect on E: rice flat sedge (rice flat sedge; [5]): 5 (Herbicidal rate of 90% or more (almost completely withered)); M: velvetleaf, herbicidal effect (criteria 0-5) (velvetleaf; [8]): 5 (Herbicidal rate of 90% or more (almost completely withered)); G: green foxtail, herbicidal effect (criteria 0-5) (green foxtail; [8]): 5 (Herbicidal rate of 90% or more (almost completely withered)); P: chickweed, herbicidal effect (criteria 0-5) (chickweed; [8]): 5 (Herbicidal rate of 90% or more (almost completely withered)); herbicidal effect on I: wild oat (wild oat; [5]): 0 (Herbicidal rate of 5% or less (almost no effect)); N: redroot pigweed, herbicidal effect (criteria 0-5) (redroot pigweed; [8]): 5 (Herbicidal rate of 90% or more (almost completely withered))
